Measured values: ChEMBL document CHEMBL5726462, “Substituted quinolines as modulators of sodium channels” (2017)

Assay: Electrophysiology Assays: Patch clamp electrophysiology was used to assess the efficacy and selectivity of sodium channel blockers in dorsal root ganglion neurons. Rat neurons were isolated from the dorsal root ganglions and maintained in culture for 2 to 10 days in the presence of NGF (50 ng/ml) (culture media consisted of NeurobasalA supplemented with B27, glutamine and antibiotics). Small diameter neurons (nociceptors, 8-12 μm in diameter) were visually identified and probed with fine tip glass electrodes connected to an amplifier (Axon Instruments). The voltage clamp mode was used to assess the compound's IC50 holding the cells at −60 mV. In addition, the current clamp mode was employed to test the efficacy of the compounds in blocking action potential generation in response to current injections. The results of these experiments contributed to the definition of the efficacy profile of the compounds.

| SMILES | IC50 |
| --- | --- |
| COc1cc(F)ccc1Oc1nc2ccccc2nc1C(=O)Nc1nnn[nH]1 | 2200 nM |
| O=C(O)c1ccc(NC(=O)c2cc3ccccc3nc2Oc2ccc(F)cc2F)cn1 | 255 nM |
| O=C(O)c1ccc(NC(=O)c2cc3ccccc3nc2Oc2ccc(F)cc2F)cc1 | 275 nM |
| COc1ccc(Oc2nc3ccccc3cc2C(=O)Nc2ccc(C(=O)O)cc2)c(OC)c1 | 550 nM |
| NS(=O)(=O)c1cccc(NC(=O)c2cc3ccccc3nc2Oc2ccccc2OC(F)F)c1 | 24 nM |
| O=C(O)c1ccc(NC(=O)c2cc3ccccc3nc2Oc2ccc(F)cc2Cl)cn1 | 96 nM |
| Cc1cc(F)ccc1Oc1nc2ccccc2cc1C(=O)Nc1ccc(C(=O)O)cc1 | 315 nM |
| O=C(O)c1ccc(NC(=O)c2cc3ccccc3nc2Oc2ccccc2OC(F)F)cc1 | 975 nM |
